Entries after “also recorded” stand apart in the source; their conditions may differ.
Assays:
Type in all cases: cell-based
[1] = tested on: AKT phosphorylation (S473); assay: Immunoblot analysis of AKT phosphorylation in cancer cells; details: for AKT phosphorylation: two days; for AKT phosphorylation (S473): ZPP 400 μM or Y29794 1 μM; for rapamycin-induced increase in phosphorylation of AKT: rapamycin 10 nM plus ZPP 200 μM or Y29794 0.5 μM, 24 hours
Protocol: 2.2 Immunoblot analysis of gene silencing of PRCP or PREP in cancer cells. Mouse anti-PRCP antibody was purchased from Abcam (Cambridge, Mass., USA). Goat anti-PREP antibody was purchased from R&D Systems (Minneapolis, Minn., USA). Mouse anti-R-actin antibody antibodies was from Santa Cruz Biotechnology (Santa Cruz, Calif., USA). Panc-1 pancreatic cancer cells and MCF7 breast cancer cells were cultured to 80% confluence, cells were rinsed three times with pre-cooled PBS, 500 μl of lysis buffer (150 mmol/L Nacl, 1% Triton-x-100, 50 mmol/l TrispH8.0, 1 mmol/L PMSF, 1 ug/L aprotinin, 1 ug/L leupeptin, 1 ug/L peptain) was added to the cells. Cells were scraped and transferred to a centrifuge tube with a pipette. The lysates were spun in a microcentrifuge at maximal speed for 10 minutes at 4° C. to get rid of the insoluble fraction. Protein concentration was determined by Bradford assay. For immunoprecipitation: 2-5 ug protein-specific antibodies were added to 250-500 ug of lysates in a tube and incubated on an ordital shaker 4° C. for 2-4 hours with moderate shaking, then 20 ul Protein G beads (Santa Cruz Biotechnology (Santa Cruz, Calif., USA.) were added and the mixture was incubated with moderate shaking for another hour. After washing the beads in lysis buffer five times, the immunoprecipitates were boiled in 2× Laemmli sample buffer (50 mmoL/L Tris-HCL (pH8.0), 100 mmoL/L DTT, 2% SDS, 0.1% bromophenol blue, 10% glycerol) for five minutes. The proteins were separated by conventional SDS-polyacrylamide gel electrophoresis (SDS-PAGE) electrophoresis and transferred to Amersham Hybond-P PVDF membrane (GE Company, Pittsburgh, Pa., USA). For immunoblot, the membrane was blocked in 2% BSA in TBST buffer (Tris 1.21 g+NaCl 5.84 g+800 ml H2O adjusted to pH 8.0 with HCl) for one hour and then incubated with primary antibodies in TBST at room temperature (22-25° C.) for 2 hours. After washing three times with TBST, the membrane was incubated with HRP-conjugated secondary antibodies for 0.5 hours at room temperature. After washing the membrane five times with TBST (5 minutes/each), the membrane was incubated with ECL chromogenic reagent (GE Company, Pittsburgh, Pa., USA) for 1-5 minutes. The blots were exposed to films in darkroom for 1-5 minute. The films were developed in an automatic X-OMAT Developer (KODAK, Rochester, N.Y., USA). […] PREP gene silencing (PREP KD) or PRCP gene silencing (PRCP KD) or gene silencing both PRCP and PREP (DKD) in MCF7 cells reduces expression of PREP and/or PRCP proteins compared with control cells (control) (FIGS. 6B & 6C).
3.1 Reduction in AKT phosphorylation is examined by immunoblot using rabbit anti-phospho-AKT […] and rabbit anti-pan AKT antibodies purchased from Cell Signaling Technology (Danvers, Mass., USA) in the cells with gene silencing of PRCP and/or PREP or treated with ZPP or Y29794. Reduction in PRCP and/or PREP is shown by Western blot and quantitative PCR described in 2.2.

[2] = tested on: mTOR (S2448) phosphorylation; assay: Immunoblot analysis of mTOR phosphorylation; details: Panc-1; rapamycin, or Y29794 1 μM (FIG. 19D)
Protocol: Mouse anti-PRCP antibody was purchased from Abcam (Cambridge, Mass., USA). Goat anti-PREP antibody was purchased from R&D Systems (Minneapolis, Minn., USA). Mouse anti-R-actin antibody antibodies was from Santa Cruz Biotechnology (Santa Cruz, Calif., USA). Panc-1 pancreatic cancer cells and MCF7 breast cancer cells were cultured to 80% confluence, cells were rinsed three times with pre-cooled PBS, 500 μl of lysis buffer (150 mmol/L Nacl, 1% Triton-x-100, 50 mmol/l TrispH8.0, 1 mmol/L PMSF, 1 ug/L aprotinin, 1 ug/L leupeptin, 1 ug/L peptain) was added to the cells. Cells were scraped and transferred to a centrifuge tube with a pipette. The lysates were spun in a microcentrifuge at maximal speed for 10 minutes at 4° C. to get rid of the insoluble fraction. Protein concentration was determined by Bradford assay. For immunoprecipitation: 2-5 ug protein-specific antibodies were added to 250-500 ug of lysates in a tube and incubated on an ordital shaker 4° C. for 2-4 hours with moderate shaking, then 20 ul Protein G beads (Santa Cruz Biotechnology (Santa Cruz, Calif., USA.) were added and the mixture was incubated with moderate shaking for another hour. After washing the beads in lysis buffer five times, the immunoprecipitates were boiled in 2× Laemmli sample buffer (50 mmoL/L Tris-HCL (pH8.0), 100 mmoL/L DTT, 2% SDS, 0.1% bromophenol blue, 10% glycerol) for five minutes. The proteins were separated by conventional SDS-polyacrylamide gel electrophoresis (SDS-PAGE) electrophoresis and transferred to Amersham Hybond-P PVDF membrane (GE Company, Pittsburgh, Pa., USA). For immunoblot, the membrane was blocked in 2% BSA in TBST buffer (Tris 1.21 g+NaCl 5.84 g+800 ml H2O adjusted to pH 8.0 with HCl) for one hour and then incubated with primary antibodies in TBST at room temperature (22-25° C.) for 2 hours. After washing three times with TBST, the membrane was incubated with HRP-conjugated secondary antibodies for 0.5 hours at room temperature. […]

PI3K = PI3K kinase assay in anti-p85 immunoprecipitates; details: Panc-1, 24 hours
Protocol: PI3K kinase assay kit (Calbiochem, Bilerica, Mass., USA) was used to measure the IRS-1-associated or p85-associated PI3K kinase activity in cells. The indicated cells were treated with different conditions for 24 hours. The cells were rinsed three times with pre-cooled PBS, lysed in 500 μl of lysis buffer (150 mmol/L Nacl, 1% Triton-x-100, 50 mmol/1 Tris (pH8.0, 1 mmol/L PMSF, 1 μg/L aprotinin, 1 μg/Lleupeptin, 1 μg/L peptain). Cell lysates (500 μg, in triplicate) of were used for anti-IRS-1 or anti-p85 immunoprecipitation. The immunoprecipitates were resuspended in 200 μl assay buffer and mixed with the fluorescence-labeled PI3K substrate BODIPY-TMR-phosphatidylinositol (100 μM) and ATP (37° C.) for 1 hour. The fluorescence intensity was measured with a fluorometer (excitation wavelength of 540 nm, emission wavelength […]). The difference between fluorescence intensity between control immunoprecipitates (no lysates) and lysate immunoprecipitates was used to indicate PI3K kinase activity. IR-1 anti-rabbit antibody and rabbit anti-PI3K p85 antibody were purchased from Millipore Corporation (Billerica, Mass., USA). Panc-1 anti-p85 immunoprecipitates were used for PI3K kinase assay (FIG. 12) and immunoblot analysis (FIG. 12). Rapamycin treatment in control cells increased PI3K kinase activity (P<0.01).

Panc-1 = assay: MTT cell viability assay
Protocol: 1.1. ZPP and Y29794 induces cytotoxicity to cancer cells by MTT analysis of cell viability. Cells were placed in 96-well plates (3×10^3 cells/well) in octuplicate. The cells were then treated with vehicle or different doses of ZPP for 4 days. Cells were then loaded with 1.2 mM MTT (4,5-Dimethylthiazol-2-vn-2,5-diphenvltetrazolium bromide, a yellow tetrazole) in phenol red-free medium for 4 hours. The cells were then lysed in 10% SDS/0.01M HCL. MTT absorbance (570 nm spectrum) was measured by a microplate reader. The relative absorbance is normalized to the control (vehicle-treated) to indicate relative cell viability. ZPP was purchased from Biomol (Plymouth Meeting, Pa., USA). MTT was purchased from Sigma-Aldrich. Panc-1 and Capan-1 pancreatic cancer cell line, MCF7 and T47D breast cancer cell lines, A549 and HI 703 lung cancer Cell lines were purchased from American Type Culture Collection (ATCC, USA) preparation of pancreatic cancer cell line PK-9 have been disclosed, e.g., Kobari M et al, (1986) Tohoku J Exp Med. 150: 231-248; Etoh T et al, (2003) Clin Cancer Res 9; 1218; Arafat H. et al, (2011) Surgery 150 (2): 306-315. Cells were grown in Dulbecco's Modified. Eagle's (DMEM) medium (Invitrogen, Carlsbad, Calif.) containing 10% fetal bovine serum (FBS) (Hyclone, purchased from Thermo Fisher Scientific, Inc). […] […] Y29794 oxalate was purchased from Tocris Biosciences (Bristol, UK).

For `CC(C)c1ccc(C(=O)c2cccs2)c(SCCCCCCCCN(C)C)n1` [Y29794, [2-[8-(dimethylamino)octylsulfanyl]-6-propan-2-ylpyridin-3-yl]-thiophen-2-ylmethanone], the AKT phosphorylation ([1]; MCF7, Y29794 0.5 μM, vs vehicle (ethanol)) was “significantly decreased”, the “AKT phosphorylation (S473)” value ([1]; MCF7, vs vehicle (FIG. 8B, 8E legend)) was “reduced” and the “rapamycin-induced increase in phosphorylation of AKT” value ([1]; MCF7) was “blocked”. For the same compound, the AKT phosphorylation ([1]; PK-9, ZPP 200 μM or Y29794 0.5 μM, vs vehicle) was “significantly decreased”, the “AKT phosphorylation (S473)” value ([1]; PK-9, vs vehicle (FIG. 8A, 8F legend)) was “reduced” and the AKT phosphorylation ([1]; Panc-1, ZPP 200 μM or Y29794 0.5 μM, vs vehicle) was “significantly decreased”. For the same compound, the “phosphorylated AKT (S473)” value ([1]; Panc-1, ZPP 400 μM alone (FIG. 10A legend) or Y29794 0.5 μM alone (FIG. 11A legend)) was “reduced”, the “AKT phosphorylation (S473)” value ([1]; Panc-1, vs vehicle (FIG. 8C, 8D legend)) was “reduced” and the “rapamycin-induced increase in phosphorylation of AKT” value ([1]; Panc-1) was “blocked”. For the same compound, the “mTOR (S2448) phosphorylation” value [2] was “without affecting”, the “PI3K kinase activity (p85-associated)” value (PI3K; ZPP 200 μM, Y29794 0.5 μM or rapamycin alone, vs vehicle) was “reduced; also recorded: significantly lower” and the “rapamycin-induced increase in PI3K kinase activity (p85-associated)” value (PI3K; rapamycin with ZPP 200 μM or Y29794 0.5 μM) was “blocks; also recorded: inhibited”. For the same compound, the “MTT absorbance (relative cell viability)” value (Panc-1; Panc-1, different doses, 4 days) was “dose-dependent cytotoxicity”, the “cell viability (MTT), combination” value (Panc-1; Panc-1, various concentration of Y29794 with 0.5 nM rapamycin, three days (FIG. 16A legend)) was “synergistic reduction” and the “cell viability (MTT), combination” value (Panc-1; Panc-1, various concentration of rapamycin with 25 nM Y29794, three days (FIG. 16B legend)) was “synergistic reduction”.
